In US4000310A, “Pharmaceutical compositions containing 6-methyl-3,4-diphenyl-3,4,5,6-tetrahydro-2-pyrone or derivatives thereof” (Union Chimique Continentale-U.C.C, priority 1974, dated 1976):

Key:
[1] = Determination of acute toxicity in the mouse; type: in vivo; details: in vivo, Behrens and Karber
Protocol: (§1) All the experiments described below were carried out using male rats weighing from 170 to 220 g (Wistar Af stock) and male mice weighing from 18 to 23 g (Swiss NMRI stock).
(§2) All the experiments took place in a laboratory with a constant temperature (22° ± 1° C).
(§3) All the experiments were carried out blind (without the experimenter knowing, at the time of the tests, which animals had received the substance presumed active).
(§4) Unless otherwise stated, 10 animals were always used per point.

[2] = system: mouse; assay: Determination of acute toxicity in the mouse; type: in vivo
Protocol: as §1, §2, §3, §4

[3] = system: mouse; assay: Motor activity in the mouse (actimeters with photoelectric cells); type: in vivo, mouse (male, Swiss NMRI stock); details: for motor activity relative to the control group: 64 mg/kg oral
Protocol: as §1
Motor activity was determined using actimeters with photoelectric cells (Boissier and Simon, Arch. int. Pharmacodyn., 1965, 158, 212-221). A minimum of 12 animals were always used per point.
a. MDTP is administered orally at variable times before activity is measured.
b. When administered orally 30 minutes before the actograph is taken, MDTP increases the motor activity of mice.
c. When administered orally immediately before the actograph is taken, MDTP (128 mg/kg) brings a marked increase in the motor activity of mice up to the 150th minute (Table I).

[4] = system: rat; assay: Motor activity in the rat (actimeters with photoelectric cells); type: in vivo, rat (male, Wistar Af stock)
Protocol: as §1
Motor activity was determined with the aid of actimeters with photoelectric cells described by Tedeschi and Coll (J. Pharm. sci. 1964, 53, 1046-1049). A minimum of 10 animals were always used per point. They show a large increase in the motor activity of rats, which becomes significant from a dose of 32 mg/kg given orally.

[5] = system: mouse; assay: Effects of barbiturate hypnotics, mouse; type: in vivo, mouse (male, Swiss NMRI stock); details: mouse, 16, 32 or 64 mg/kg oral, with pentabarbitone or barbitone sodium
Protocol: as §1

[6] = system: convulsion-inducing attacks; assay: Interaction with convulsion-inducing dose of cardiazol; type: in vivo; details: 64 mg/kg oral 30 min before cardiazol 160 mg/kg s.c.
[7] = 16 mg/kg orally 15 min before test
[8] = 32 mg/kg orally 15 min before test
[9] = 64 mg/kg orally 15 min before test
[10] = 128 mg/kg orally 15 min before test

Compound: CC1CC(c2ccccc2)C(c2ccccc2)C(=O)O1 (stereo not drawn) [MDTP, 6-methyl-3,4-diphenyl-3,4,5,6-tetrahydro-2-pyrone]
- LD50 ([1]; ip, intraperitoneal): 150 mg/kg
- LD50 ([1]; oral): 625 mg/kg
- ratio LD50/ED 50 [2]: approximately 20/1
- motor activity relative to the control group ([3]; 15 min pretreatment): 221%
- motor activity relative to the control group ([3]; 30 min pretreatment): 192%
- motor activity relative to the control group ([3]; 60 min pretreatment): 161%
- motor activity relative to the control group ([3]; 120 min pretreatment): 136%
- Number of bars passed over by mice, 150 to 180 min ([3]; 128 mg/kg orally, control group 8): 25
- Number of bars passed over by mice, 60 to 90 min ([3]; 128 mg/kg orally, control group 12): 244
- Number of bars passed over by mice, 120 to 150 min ([3]; 128 mg/kg orally, control group 14): 66
- Number of bars passed over by mice, 90 to 120 min ([3]; 128 mg/kg orally, control group 15): 99
- Number of bars passed over by mice, 30 to 60 min ([3]; 128 mg/kg orally, control group 82): 428
- Number of bars passed over by mice, 0 to 30 min ([3]; 128 mg/kg orally, control group 390): 846
- minimal effective dose ([3]; 0.5 h, mouse, oral, 30 min before actograph, read-out: dose from which increase in motor activity becomes significant): 32 mg/kg
- dose dependence of increase in motor activity ([3]; mouse, oral, 30 min before actograph): proportional to the dose administered
- Number of bars passed over after 5 min [4, 7]: 131 % of control group
- Number of bars passed over after 10 min [4, 7]: 135 % of control group
- Number of bars passed over after 15 min [4, 7]: 148 % of control group
- Number of bars passed over after 20 min [4, 7]: 145 % of control group
- Number of bars passed over after 25 min [4, 7]: 144 % of control group
- Number of bars passed over after 30 min [4, 7]: 133 % of control group
- Number of bars passed over after 5 min [4, 8]: 186 % of control group
- Number of bars passed over after 10 min [4, 8]: 184 % of control group
- Number of bars passed over after 15 min [4, 8]: 135 % of control group
- Number of bars passed over after 20 min [4, 8]: 138 % of control group
- Number of bars passed over after 25 min [4, 8]: 155 % of control group
- Number of bars passed over after 30 min [4, 8]: 161 % of control group
- Number of bars passed over after 5 min [4, 9]: 155 % of control group
- Number of bars passed over after 10 min [4, 9]: 181 % of control group
- Number of bars passed over after 15 min [4, 9]: 178 % of control group
- Number of bars passed over after 20 min [4, 9]: 200 % of control group
- Number of bars passed over after 25 min [4, 9]: 186 % of control group
- Number of bars passed over after 30 min [4, 9]: 195 % of control group
- Number of bars passed over after 5 min [4, 10]: 210 % of control group
- Number of bars passed over after 10 min [4, 10]: 215 % of control group
- Number of bars passed over after 15 min [4, 10]: 209 % of control group
- Number of bars passed over after 20 min [4, 10]: 217 % of control group
- Number of bars passed over after 25 min [4, 10]: 215 % of control group
- Number of bars passed over after 30 min [4, 10]: 201 % of control group
- minimal effective dose ([4]; oral, read-out: dose from which increase in motor activity becomes significant): 32 mg/kg
- change in time to fall asleep and sleeping period [5]: did not produce any change in the time taken to fall asleep or in the sleeping period
- latency of convulsion-inducing attacks [6]: did not reduce the latency of the convulsion-inducing attacks
